Patent publication US9145351B2, “Azole derivatives, methods for producing the same, intermediate thereof, agro-horticultural agents” (KUREHA CORPORATION, priority 2009, dated 2015)

Tests used:
[1] = system: Botritis cinerea; test: Plate medium fungicidal assay, gray mold B.c (Experimental Example 5); type: cell-based; details: for inhibition at 5 µg/mL / inhibition at 50 µg/mL: read-out: growth inhibition grade B.c
Summary of the method: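 Compounds in DMSO were incorporated into PDA plate medium at 50 mg/L and 5 mg/L, then inoculated with 4 mm mycelial plugs of Botrytis cinerea. Colony diameter versus untreated plates gave % mycelial growth inhibition, R=100(dc−dt)/dc, scored on a 5-grade scale.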

[2] = system: Giberella fujikuroi; test: Plate medium fungicidal assay, rice bakanae disease G.f (Experimental Example 5); type: cell-based; details: for inhibition at 5 µg/mL / inhibition at 50 µg/mL: read-out: growth inhibition grade G.f
Summary of the method: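 Gibberella fujikuroi mycelial plugs (4 mm) placed on PDA plates containing compound at 50 mg/L and 5 mg/L, added from DMSO solution. Colony diameter compared with untreated plates as % inhibition = 100(dc−dt)/dc, then scored in 5 grades.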

[3] = system: Puccinia recondita; test: Efficacy test against wheat brown rust, 100 mg/L and 10 mg/L (Experimental Example 2); type: in vivo; details: nine to 14 days after inoculation; for pest or weed control at 100 µg/mL: Puccinia recondita, 336 h, 100 mg/L sprayed at 1,000 L/ha, read-out: Protective value; for efficacy compared with compound (1): 10 mg/L sprayed at 1,000 L/ha
Procedure: Onto a wheat plant (variety: NORIN No. 61) grown to the two-leaf phase using a square plastic pot (6 cm×6 cm), a wettable formulation such as Formulation Example 1 which was diluted and suspended in water at a certain concentration (100 mg/L and 10 mg/L) was sprayed at a rate of 1,000 L/ha. The sprayed leaves were air-dried, and inoculated with spore suspension of Puccinia recondita (adjusted at 200 spores/vision, […] was added at 60 ppm) by spraying, and kept at 25 degrees C. and a high humidity for 48 hours. Thereafter, the plant was kept in a greenhouse. Nine to 14 days after inoculation, the wheat brown rust lesion degree was investigated, and the protective value was calculated by the following equation. Protective value (%)=(1-lesion degree in sprayed plot/lesion degree in unsprayed plot)×100

[4] = system: Rhynchosporium secalis; test: Plate medium fungicidal assay, barley leaf blotch R.sec (Experimental Example 5); type: cell-based; details: for inhibition at 5 µg/mL / inhibition at 50 µg/mL: Rhynchosporium secalis, read-out: growth inhibition grade R.sec
Summary of the method: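 Compound in DMSO mixed into PDA plate medium at 50 mg/L and 5 mg/L; 4 mm mycelial plug of the fungus inoculated. Colony diameter compared with untreated plates gives % mycelial growth inhibition R=100(dc−dt)/dc, scored on a 5-grade scale.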

[5] = system: Alternaria alternata; test: Plate medium fungicidal assay, Alternaria blotch A.m (Experimental Example 5); type: cell-based; details: for inhibition at 5 µg/mL / inhibition at 50 µg/mL: Alternaria alternata, read-out: growth inhibition grade A.m
Summary of the method: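 Compound dissolved in DMSO and mixed into PDA plates at 50 mg/L and 5 mg/L; 4 mm mycelial plug inoculated. Colony diameter compared with untreated plates, % mycelial growth inhibition = 100(dc−dt)/dc, converted to one of 5 grades.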

[6] = plate medium containing compound at 5 mg/L
[7] = plate medium containing compound at 50 mg/L

| Structure (SMILES) | inhibition at 5 µg/mL ([1]; plate medium, 5 mg/L) [%] | inhibition at 50 µg/mL ([1]; plate medium, 50 mg/L) [%] | inhibition at 5 µg/mL ([2]; plate medium, 5 mg/L) [%] | inhibition at 50 µg/mL ([2]; plate medium, 50 mg/L) [%] | pest or weed control at 100 µg/mL [3] [%] | inhibition at 5 µg/mL ([4]; plate medium, 5 mg/L) [%] | inhibition at 50 µg/mL ([4]; plate medium, 50 mg/L) [%] | inhibition at 5 µg/mL ([5]; plate medium, 5 mg/L) [%] | inhibition at 50 µg/mL ([5]; plate medium, 50 mg/L) [%] | efficacy compared with compound (1) [3] | Growth inhibition grade, B.c [1, 6] | Growth inhibition grade, B.c [1, 7] | Growth inhibition grade, G.f [2, 6] | Growth inhibition grade, G.f [2, 7] | Growth inhibition grade, R.sec [4, 6] | Growth inhibition grade, R.sec [4, 7] | Growth inhibition grade, A.m [5, 6] | Growth inhibition grade, A.m [5, 7] | also measured |
| --- | --- | --- | --- | --- | --- | --- | --- | --- | --- | --- | --- | --- | --- | --- | --- | --- | --- | --- | --- |
| C[C@]1(CCl)CC[C@H](Cc2ccc(Cl)cc2)[C@]1(O)Cn1cncn1 (racemic) [Compound I-301, (1RS,2SR,5RS)-5-(4-chlorobenzyl)-2-chloromethyl-2-methyl-1-[1,2,4]triazol-1-ylmethylcyclopentanol] | > 80 | > 80 | > 80 | > 80 | ≥ 90 | > 80 | > 80 | > 80 | > 80 | – | – | – | – | – | – | – | – | – | – |
| C[C@]1(CBr)CC[C@@H](Cc2ccc(F)cc2)[C@]1(O)Cn1cncn1 (racemic) [Compound I-601, (1RS,2SR,5SR)-2-bromomethyl-5-(4-fluorobenzyl)-2-methyl-1-(1H-1,2,4-triazol-1-ylmethyl)cyclopentanol] | 60 to 80 | > 80 | > 80 | > 80 | ≥ 90 | > 80 | > 80 | 60 to 80 | > 80 | higher efficacy than that of compound (1) | – | – | – | – | – | – | – | – | – |
| C[C@]1(CBr)CC[C@@H](Cc2ccccc2)[C@]1(O)Cn1cncn1 (racemic) [Compound I-602, (1RS,2SR,5SR)-2-bromomethyl-5-benzyl-2-methyl-1-(1H-1,2,4-triazol-1-ylmethyl)cyclopentanol] | 60 to 80 | > 80 | > 80 | > 80 | ≥ 90 | > 80 | > 80 | 60 to 80 | > 80 | higher efficacy than that of compound (1) | – | – | – | – | – | – | – | – | – |
| C[C@]1(CCl)CC[C@@H](Cc2ccc(OC(F)(F)F)cc2)[C@]1(O)Cn1cncn1 (relative stereo) [Compound I-79] | – | – | – | – | – | – | – | – | – | higher efficacy than that of compound (1) | 5 (% Mycerial growth inhibition of 80% or higher) | 5 (% Mycerial growth inhibition of 80% or higher) | 5 (% Mycerial growth inhibition of 80% or higher) | 5 (% Mycerial growth inhibition of 80% or higher) | 5 (% Mycerial growth inhibition of 80% or higher) | 5 (% Mycerial growth inhibition of 80% or higher) | 5 (% Mycerial growth inhibition of 80% or higher) | 5 (% Mycerial growth inhibition of 80% or higher) | – |
| Cc1ccc(C[C@@H]2CC[C@](C)(CCl)[C@@]2(O)Cn2cncn2)cc1 (relative stereo) [Compound I-80] | – | – | – | – | – | – | – | – | – | higher efficacy than that of compound (1) | 5 (% Mycerial growth inhibition of 80% or higher) | 5 (% Mycerial growth inhibition of 80% or higher) | 5 (% Mycerial growth inhibition of 80% or higher) | 5 (% Mycerial growth inhibition of 80% or higher) | 5 (% Mycerial growth inhibition of 80% or higher) | 5 (% Mycerial growth inhibition of 80% or higher) | 5 (% Mycerial growth inhibition of 80% or higher) | 5 (% Mycerial growth inhibition of 80% or higher) | – |
| C[C@]1(CCl)CC[C@@H](Cc2ccccc2F)[C@]1(O)Cn1cncn1 (relative stereo) [Compound I-86] | – | – | – | – | – | – | – | – | – | higher efficacy than that of compound (1) | 5 (% Mycerial growth inhibition of 80% or higher) | 5 (% Mycerial growth inhibition of 80% or higher) | 5 (% Mycerial growth inhibition of 80% or higher) | 5 (% Mycerial growth inhibition of 80% or higher) | 5 (% Mycerial growth inhibition of 80% or higher) | 5 (% Mycerial growth inhibition of 80% or higher) | 4 (% Mycerial growth inhibition of less than 80 to 60% or higher) | 5 (% Mycerial growth inhibition of 80% or higher) | – |
| C[C@]1(CCl)CC[C@@H](Cc2ccc(F)cc2F)[C@]1(O)Cn1cncn1 (relative stereo) [Compound I-88] | – | – | – | – | – | – | – | – | – | higher efficacy than that of compound (1) | 5 (% Mycerial growth inhibition of 80% or higher) | 5 (% Mycerial growth inhibition of 80% or higher) | 5 (% Mycerial growth inhibition of 80% or higher) | 5 (% Mycerial growth inhibition of 80% or higher) | 5 (% Mycerial growth inhibition of 80% or higher) | 5 (% Mycerial growth inhibition of 80% or higher) | 4 (% Mycerial growth inhibition of less than 80 to 60% or higher) | 5 (% Mycerial growth inhibition of 80% or higher) | – |
| CC[C@]1(CCl)CC[C@@H](Cc2ccccc2)[C@]1(O)Cn1cncn1 (relative stereo) [Compound I-97] | – | – | – | – | – | – | – | – | – | higher efficacy than that of compound (1) | 5 (% Mycerial growth inhibition of 80% or higher) | 5 (% Mycerial growth inhibition of 80% or higher) | 5 (% Mycerial growth inhibition of 80% or higher) | 5 (% Mycerial growth inhibition of 80% or higher) | 5 (% Mycerial growth inhibition of 80% or higher) | 5 (% Mycerial growth inhibition of 80% or higher) | 4 (% Mycerial growth inhibition of less than 80 to 60% or higher) | 5 (% Mycerial growth inhibition of 80% or higher) | – |
| O[C@]1(Cn2cncn2)[C@H](Cc2ccc(Cl)cc2)CCC1(CCl)CCl (relative stereo) [Compound I-203, cis-5-(4-chlorobenzyl)-2,2-bis(chloromethyl)-1-(1H-1,2,4-triazol-1-yl)methylcyclopentanol] | – | – | – | – | – | – | – | – | – | higher efficacy than that of compound (1) | – | – | – | – | – | – | – | – | Growth inhibition grade, B.c ([1]; plate medium, 5 mg/L): 5 (% Mycerial growth inhibition of 80% or higher); Growth inhibition grade, B.c ([1]; plate medium, 50 mg/L): 5 (% Mycerial growth inhibition of 80% or higher); Growth inhibition grade, G.f ([2]; plate medium, 5 mg/L): 5 (% Mycerial growth inhibition of 80% or higher); Growth inhibition grade, G.f ([2]; plate medium, 50 mg/L): 5 (% Mycerial growth inhibition of 80% or higher); Growth inhibition grade, R.sec ([4]; plate medium, 5 mg/L): 5 (% Mycerial growth inhibition of 80% or higher); Growth inhibition grade, R.sec ([4]; plate medium, 50 mg/L): 5 (% Mycerial growth inhibition of 80% or higher); Growth inhibition grade, A.m ([5]; plate medium, 5 mg/L): 5 (% Mycerial growth inhibition of 80% or higher); Growth inhibition grade, A.m ([5]; plate medium, 50 mg/L): 5 (% Mycerial growth inhibition of 80% or higher) |
